Like-named read-outs stand apart in the source and are kept apart here.
Assay: Plasma pharmacokinetics (LC-MS/MS)
Assay type: in vivo, human
Conditions: human, plasma; for concentration at 15 day: read-out: Cmin, Median (Min, max)
Experimental: In the dose escalation part of the study, PK samples were collected at various pre- and post-dose time points on C1D1, D2, D3, D15 and D16. Drug concentrations were assessed using a validated liquid chromatography-tandem mass spectrometry assay.

SMILES: CC1(N)CCN(c2cccnc2NC(=O)c2nc(-c3ncccc3C(F)(F)F)cnc2N)CC1 [LXS196]
- AUC(0-t) (oral, 500 mg, C1D1, 500 mg QD, n=10, read-out: AUC0-t, Median (Min, max)): 50700 ng·h/mL
- AUC(0-inf) (oral, 500 mg, C1D1, 500 mg QD, n=10, read-out: AUCinf, Geo-mean): 59500 ng·h/mL
- AUC(0-inf) (oral, 500 mg, C1D1, 500 mg QD, n=10, read-out: AUCinf, Mean (SD)): 63400 ng·h/mL
- AUC(0-inf) (oral, 500 mg, C1D1, 500 mg QD, n=10, read-out: AUCinf, Median (Min, max)): 61700 ng·h/mL
- Cmax (oral, 500 mg, C1D1, 500 mg QD, n=10, read-out: Cmax, Geo-mean): 4670 ng/mL
- Cmax (oral, 500 mg, C1D1, 500 mg QD, n=10, read-out: Cmax, Mean (SD)): 4970 ng/mL
- Cmax (oral, 500 mg, C1D1, 500 mg QD, n=10, read-out: Cmax, Median (Min, max)): 4380 ng/mL
- half-life (oral, 500 mg, C1D1, 500 mg QD, n=10, read-out: T1/2, Geo-mean (converted)): 10.1 h
- half-life (oral, 500 mg, C1D1, 500 mg QD, n=10, read-out: T1/2, Mean (SD) (converted)): 10.2 h
- half-life (oral, 500 mg, C1D1, 500 mg QD, n=10, read-out: T1/2, Median (Min, max) (converted)): 10.1 h
- Tmax (oral, 500 mg, C1D1, 500 mg QD, n=10, read-out: Tmax, Median (Min, max)): 1.03 h
- AUC(0-t) (oral, 500 mg, C1D15, 500 mg QD, n=9, read-out: AUC0-t, Geo-mean): 43100 ng·h/mL
- AUC(0-t) (oral, 500 mg, C1D15, 500 mg QD, n=9, read-out: AUC0-t, Mean (SD)): 45700 ng·h/mL
- AUC(0-t) (oral, 500 mg, C1D15, 500 mg QD, n=9, read-out: AUC0-t, Median (Min, max)): 41700 ng·h/mL
- Cmax (oral, 500 mg, C1D15, 500 mg QD, n=9, read-out: Cmax, Geo-mean): 3870 ng/mL
- Cmax (oral, 500 mg, C1D15, 500 mg QD, n=9, read-out: Cmax, Mean (SD)): 4170 ng/mL
- Cmax (oral, 500 mg, C1D15, 500 mg QD, n=9, read-out: Cmax, Median (Min, max)): 3700 ng/mL
- concentration at 15 day (oral, 500 mg, C1D15, 500 mg QD, n=9): 643 ng/mL
- Tmax (oral, 500 mg, C1D15, 500 mg QD, n=9, read-out: Tmax, Median (Min, max)): 1.07 h
- AUC(0-t) (oral, 800 mg, C1D1, 800 mg QD, n=1, read-out: AUC0-t, Geo-mean): 54300 ng·h/mL
- AUC(0-t) (oral, 800 mg, C1D1, 800 mg QD, n=1, read-out: AUC0-t, Mean (SD)): 54300 ng·h/mL
- AUC(0-t) (oral, 800 mg, C1D1, 800 mg QD, n=1, read-out: AUC0-t, Median (Min, max)): 54300 ng·h/mL
- AUC(0-inf) (oral, 800 mg, C1D1, 800 mg QD, n=1, read-out: AUCinf, Geo-mean): 66200 ng·h/mL
- AUC(0-inf) (oral, 800 mg, C1D1, 800 mg QD, n=1, read-out: AUCinf, Mean (SD)): 66200 ng·h/mL
- AUC(0-inf) (oral, 800 mg, C1D1, 800 mg QD, n=1, read-out: AUCinf, Median (Min, max)): 66200 ng·h/mL
- Cmax (oral, 800 mg, C1D1, 800 mg QD, n=1, read-out: Cmax, Geo-mean): 6080 ng/mL
- Cmax (oral, 800 mg, C1D1, 800 mg QD, n=1, read-out: Cmax, Mean (SD)): 6080 ng/mL
- Cmax (oral, 800 mg, C1D1, 800 mg QD, n=1, read-out: Cmax, Median (Min, max)): 6080 ng/mL
- half-life (oral, 800 mg, C1D1, 800 mg QD, n=1, read-out: T1/2, Geo-mean (converted)): 8.85 h
- half-life (oral, 800 mg, C1D1, 800 mg QD, n=1, read-out: T1/2, Mean (SD) (converted)): 8.85 h
- half-life (oral, 800 mg, C1D1, 800 mg QD, n=1, read-out: T1/2, Median (Min, max) (converted)): 8.85 h
- Tmax (oral, 800 mg, C1D1, 800 mg QD, n=1, read-out: Tmax, Median (Min, max)): 0.483 h
- AUC(0-inf) (oral, 1000 mg, C1D1, 1000 mg QD, n=3, read-out: AUCinf, Geo-mean): 75700 ng·h/mL
- AUC(0-inf) (oral, 1000 mg, C1D1, 1000 mg QD, n=3, read-out: AUCinf, Mean (SD)): 78000 ng·h/mL
- AUC(0-inf) (oral, 1000 mg, C1D1, 1000 mg QD, n=3, read-out: AUCinf, Median (Min, max)): 66000 ng·h/mL
- half-life (oral, 1000 mg, C1D1, 1000 mg QD, n=3, read-out: T1/2, Geo-mean (converted)): 9.94 h
- half-life (oral, 1000 mg, C1D1, 1000 mg QD, n=3, read-out: T1/2, Mean (SD) (converted)): 10 h
- half-life (oral, 1000 mg, C1D1, 1000 mg QD, n=3, read-out: T1/2, Median (Min, max) (converted)): 9.32 h
- AUC(0-t) (oral, 1000 mg, C1D1, 1000 mg QD, n=4, read-out: AUC0-t, Geo-mean): 69700 ng·h/mL
- AUC(0-t) (oral, 1000 mg, C1D1, 1000 mg QD, n=4, read-out: AUC0-t, Mean (SD)): 74300 ng·h/mL
- AUC(0-t) (oral, 1000 mg, C1D1, 1000 mg QD, n=4, read-out: AUC0-t, Median (Min, max)): 70100 ng·h/mL
- Cmax (oral, 1000 mg, C1D1, 1000 mg QD, n=4, read-out: Cmax, Geo-mean): 5080 ng/mL
- Cmax (oral, 1000 mg, C1D1, 1000 mg QD, n=4, read-out: Cmax, Mean (SD)): 5410 ng/mL
- Cmax (oral, 1000 mg, C1D1, 1000 mg QD, n=4, read-out: Cmax, Median (Min, max)): 5230 ng/mL
- Tmax (oral, 1000 mg, C1D1, 1000 mg QD, n=4, read-out: Tmax, Median (Min, max)): 2 h
- AUC(0-t) (oral, 1000 mg, C1D15, 1000 mg QD, n=2, read-out: AUC0-t, Geo-mean): 48000 ng·h/mL
- AUC(0-t) (oral, 1000 mg, C1D15, 1000 mg QD, n=2, read-out: AUC0-t, Mean (SD)): 48300 ng·h/mL
- AUC(0-t) (oral, 1000 mg, C1D15, 1000 mg QD, n=2, read-out: AUC0-t, Median (Min, max)): 48300 ng·h/mL
- Cmax (oral, 1000 mg, C1D15, 1000 mg QD, n=2, read-out: Cmax, Geo-mean): 4870 ng/mL
- Cmax (oral, 1000 mg, C1D15, 1000 mg QD, n=2, read-out: Cmax, Mean (SD)): 5110 ng/mL
- Cmax (oral, 1000 mg, C1D15, 1000 mg QD, n=2, read-out: Cmax, Median (Min, max)): 5110 ng/mL
- concentration at 15 day (oral, 1000 mg, C1D15, 1000 mg QD, n=2): 674 ng/mL
- Tmax (oral, 1000 mg, C1D15, 1000 mg QD, n=2, read-out: Tmax, Median (Min, max)): 0.792 h
- half-life (oral, across different doses, read-out: Terminal T1/2 (converted)): ~11 h
- Tmax (oral, fasting, 100–1000 mg QD and 200–400 mg BID, read-out: Tmax): ~1 h
- Tmax (po, D1 and D15, read-out: Median Tmax, range across dose groups): 0.483 to 2 h
- half-life (po, read-out: Mean terminal half-life (T1/2), range across dose groups): 8.49 to 13.8 h

— paper PMC10006169, “A phase I trial of LXS196, a protein kinase C (PKC) inhibitor, for metastatic uveal melanoma” (British Journal of Cancer, 2023)
